# Measurements as given in US9981950B2, “Triazoles as NR2B receptor inhibitors” (Janssen Pharmaceuticals, Inc., priority 2014, dated 2018).
# Target: hERG-receptor (Homo sapiens (Human), UniProt Q12809)
# Assay: HERGBD: inhibition of specific 3H-Dofetilide binding to the hERG-receptor
# Conditions: HEK cell membranes with human ERG, Hill-plot 2-parameter-model
# Procedure, shortened: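 Membranes from HEK cells stably expressing human ERG incubated 90 min at RT with 1.5 nmol/l 3H-dofetilide in 20 mM HEPES/0.1 mM KCl pH 7.2, inhibitor in 1% DMSO. Nonspecific binding with […] dofetilide; bound ligand separated by filtration and scintillation counted.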
# Sequence of hERG-receptor (Q12809 whole entry): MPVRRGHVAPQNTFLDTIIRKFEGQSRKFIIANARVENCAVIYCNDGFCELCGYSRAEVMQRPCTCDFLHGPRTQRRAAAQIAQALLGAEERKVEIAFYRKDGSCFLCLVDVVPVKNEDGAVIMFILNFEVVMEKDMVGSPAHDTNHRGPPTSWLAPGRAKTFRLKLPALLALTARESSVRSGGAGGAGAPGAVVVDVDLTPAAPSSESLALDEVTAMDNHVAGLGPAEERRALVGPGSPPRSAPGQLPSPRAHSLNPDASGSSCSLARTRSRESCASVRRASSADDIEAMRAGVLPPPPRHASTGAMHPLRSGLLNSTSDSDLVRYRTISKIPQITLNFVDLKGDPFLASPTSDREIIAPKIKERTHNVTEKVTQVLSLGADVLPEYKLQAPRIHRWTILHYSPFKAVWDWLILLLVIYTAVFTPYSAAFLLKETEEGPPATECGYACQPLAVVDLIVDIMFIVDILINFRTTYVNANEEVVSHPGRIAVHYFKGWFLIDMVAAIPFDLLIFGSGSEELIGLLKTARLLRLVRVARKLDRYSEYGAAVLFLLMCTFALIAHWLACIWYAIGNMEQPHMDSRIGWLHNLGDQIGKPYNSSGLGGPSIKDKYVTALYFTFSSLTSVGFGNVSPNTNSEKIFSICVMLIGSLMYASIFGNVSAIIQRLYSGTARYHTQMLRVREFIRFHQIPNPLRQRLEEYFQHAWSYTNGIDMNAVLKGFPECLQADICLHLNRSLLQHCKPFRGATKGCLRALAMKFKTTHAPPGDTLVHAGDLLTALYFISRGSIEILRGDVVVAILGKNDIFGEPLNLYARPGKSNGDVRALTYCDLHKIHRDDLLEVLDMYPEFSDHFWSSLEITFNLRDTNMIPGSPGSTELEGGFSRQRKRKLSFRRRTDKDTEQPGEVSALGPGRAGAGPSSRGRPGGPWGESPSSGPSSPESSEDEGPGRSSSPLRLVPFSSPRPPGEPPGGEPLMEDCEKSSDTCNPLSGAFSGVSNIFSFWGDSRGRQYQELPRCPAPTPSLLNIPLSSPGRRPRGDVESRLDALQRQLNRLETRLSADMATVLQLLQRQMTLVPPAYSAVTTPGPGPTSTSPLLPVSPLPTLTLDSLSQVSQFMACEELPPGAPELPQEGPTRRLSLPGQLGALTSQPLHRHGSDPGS
row,SMILES,IC50
1,"OCCc1nccn1Cc1cn(-c2ccc(F)c(OC(F)F)c2)nn1 [Example 101, 1-(3-Difluoromethoxy-4-fluoro-phenyl)-4-[2-(2-hydroxy-ethyl)-imidazol-1-ylmethyl]-1H-[1,2,3]triazole]",36.7 µM
2,"CC(C)c1nccn1Cc1cn(-c2ccc(Cl)cc2)nn1 [Example 23, 1-(4-Chloro-phenyl)-4-(2-isopropyl-imidazol-1-ylmethyl)-1H-[1,2,3]triazole]",7.94 µM
3,"Cn1nccc1Cc1cn(-c2ccc(F)c(Cl)c2)nn1 [Example 109, 1-(3-Chloro-4-fluoro-phenyl)-4-(2-methyl-2H-pyrazol-3-ylmethyl)-1H-[1,2,3]triazole]",> 100 µM
4,"Nc1nccn1Cc1cn(-c2ccc(F)c(C(F)F)c2)nn1 [Example 113B, 4-(2-amino-imidazol-1-ylmethyl)-1-(4-fluoro-3-difluoromethyl-phenyl)-1H-[1,2,3]triazole]",11 µM
5,CC(F)(F)c1cc(-n2cc(Cn3ccnc3N)nn2)ccc1F [Example 114],4.31 µM
6,"CC(C)c1nccn1Cc1cn(-c2ccc(F)c(C(F)F)c2)nn1 [Example 84, 1-(3-Difluoromethyl-4-fluoro-phenyl)-4-(2-isopropyl-imidazol-1-ylmethyl)-1H-[1,2,3]triazole]",25.1 µM
7,"Fc1ccc(-n2cc(Cn3ccnc3C3CC3)nn2)cc1C(F)F [Example 82, 4-(2-Cyclopropyl-imidazol-1-ylmethyl)-1-(3-difluoromethyl-4-fluoro-phenyl)-1H-[1,2,3]triazole]",15.7 µM
8,"Cc1nccn1Cc1cn(-c2ccc(Cl)c(OC(F)F)c2)nn1 [Example 93, 1-(4-Chloro-3-difluoromethoxy-phenyl)-4-(2-methyl-imidazol-1-ylmethyl)-1H-[1,2,3]triazole]",9.6 µM
9,"Cc1nccn1Cc1cn(-c2ccc(F)c(C(F)F)c2)nn1 [Example 81, 1-(3-Difluoromethyl-4-fluoro-1-phenyl)-4-(2-methyl-imidazol-1-ylmethyl)-1H-[1,2,3]triazole]",14.3 µM
10,"Nc1nccn1Cc1cn(-c2ccc(Cl)c(C(F)F)c2)nn1 [Example 113A, 4-(2-amino-imidazol-1-ylmethyl)-1-(4-chloro-3-difluoromethyl-phenyl)-1H-[1,2,3]triazole]",3.09 µM

# System: Male NMRI mice
# Assay: Forced swim test in mice
# Type: in vivo
# Conditions: p.o. 30 minutes before the test
# Protocol: The method, which detects antidepressant activity, follows that described by Porsolt et al (Arch. Int. Pharmacodyn., 229, 327-336, 1977), which is incorporated by reference herein in its entirety.
# Mice forced to swim in a situation from which they cannot escape rapidly become immobile. Antidepressants decrease the duration of immobility.
# Male NMRI mice (Janvier, France), weighing 20-30 g, were individually placed in a cylinder (height=24 cm; diameter=13 cm) containing 10 cm water (22° C.) from which they cannot escape.
# The mice were placed in the water for 6 minutes and the duration of immobility during the last 4 minutes was measured. The latency to the first bout of immobility was also recorded starting from the beginning of the test. 10 mice were studied per group. The test substance was administered p.o. 30 minutes before the test and compared with vehicle control group. The test was performed blind.
row,SMILES,Minimum effective dose (mg/kg p.o.)
1,"OCCc1nccn1Cc1cn(-c2ccc(F)c(OC(F)F)c2)nn1 [Example 101, 1-(3-Difluoromethoxy-4-fluoro-phenyl)-4-[2-(2-hydroxy-ethyl)-imidazol-1-ylmethyl]-1H-[1,2,3]triazole]",>30 mg/kg
2,"Fc1ccc(-n2cc(Cn3ccnc3C3CC3)nn2)cc1C(F)F [Example 82, 4-(2-Cyclopropyl-imidazol-1-ylmethyl)-1-(3-difluoromethyl-4-fluoro-phenyl)-1H-[1,2,3]triazole]",60 mg/kg
